# Measurements from patent publication US8513232B2, “Substituted spirocyclic piperidine derivatives as histamine-3 (H3) receptor ligands” (Cephalon, Inc., priority 2008, dated 2013).
# Read-outs that look alike come from different tables or passages of the source.
# Columns and labels:
# [1] = target: T1, rat histamine H3 receptor (Rattus norvegicus, UniProt Q9QYN8); test: Rat H3 radioligand binding ([3H]-N-alpha-methylhistamine, SPA)
# T1 construct: encoding the entire 445-amino-acid rat histamine H3 receptor; expressed in transfected cells; membrane preparation
# Excerpt: Cell line development and membrane preparation. The rat H3 receptor cDNA was PCR amplified from reverse-transcribed RNA pooled from rat thalamus, hypothalamus, striatum and prefrontal cortex with a sequence corresponding to by #338-1672 of Genbank file #NM_053506, encoding the entire 445-amino-acid rat histamine H3 receptor. This was engineered into the pIRES-neo3 mammalian expression vector, which was stably transfected into the CHO-A3 cell line (Euroscreen, Belgium), followed by clonal selection by limiting dilution. Cells were harvested and cell pellets were frozen (−80° C.). Cell pellets were resuspended in 5 mM Tris-HCl, pH 7.5 with […] and a cocktail of protease inhibitors (Complete Protease Inhibitior Tablets, Roche Diagnostics). Cells were disrupted using a polytron cell homogenizer and the suspension was centrifuged at 1000×g for 10 minutes at 4° C. The pellet was discarded and the supernatant centrifuged at 40,000×g for 30 min at 4° C. This membrane pellet was washed in membrane buffer containing 50 mM Tris-HCl, pH 7.5 with 0.6 mM EDTA, 5 mM MgCl2 and protease inhibitors, recentrifuged as above and the final pellet resuspended in membrane buffer plus 250 mM sucrose and frozen at −80° C.
# (§1) Radioligand Binding. Membranes were resuspended in 50 mM Tris HCl (pH 7.4), 5 mM MgCl2, 0.1% BSA. The membrane suspensions (10 μg protein per well) were incubated in a 96 well microtiter plate with [^3H]-N-alpha-methylhistamine (approximately 1 nM final concentration), test compounds at various concentrations (0.01 nM-30 μM) and scintillation proximity beads (Perkin Elmer, FlashBlueGPCR Scintillating Beads) in a final volume of 80 μl for 4 hours at room temperature, protected from light. Non-specific binding was determined in the presence of 10 μM clobenpropit. Radioligand bound to receptor, and therefore in proximity to the scintillation beads, was measured using a MicroBeta scintillation counter.
# human H3 receptor = target: T2, human H3 receptor (Homo sapiens, UniProt Q9Y5N1); test: Human H3 radioligand binding ([3H]-N-alpha-methylhistamine, SPA)
# T2 construct: expressed in transfected cells
# Method: Methods: CHO cells stably expressing the human H3 receptor (GenBank: NM_007232) were harvested and cell pellets were frozen (−80° C.). Cell pellets were resuspended in 5 mM Tris-HCl, pH 7.5 with […] and a cocktail of protease inhibitors (Complete Protease Inhibitior Tablets, Roche Diagnostics). Cells were disrupted using a polytron cell homogenizer and the suspension was centrifuged at 1000×g for 10 minutes at 4° C. The pellet was discarded and the supernatant centrifuged at 40,000×g for 30 min at 4° C. This membrane pellet was washed in membrane buffer containing 50 mM Tris-HCl, pH 7.5 with 0.6 mM EDTA, 5 mM MgCl2 and protease inhibitors, recentrifuged as above and the final pellet resuspended in membrane buffer plus 250 mM sucrose and frozen at −80° C.
# as §1
# [2] = Table A, rat H3 binding, read-out: Rat Ki
# [3] = Table A, human H3 binding, read-out: Human Ki
# [4] = rat H3 binding, Table D, read-out: Rat H3 Ki
# [5] = human H3 binding, Table D, read-out: Human H3 Ki
# [6] = Rat H3 binding, Table B, Examples 136-362, read-out: rat H3 binding Ki
# [7] = Human H3 binding, Table B, Examples 136-362, read-out: hum H3 binding Ki
# [8] = Table C, rat H3 binding, read-out: Rat H3 Ki
# [9] = Table C, human H3 binding, read-out: Human H3 Ki
# T2 sequence (Q9Y5N1 whole entry): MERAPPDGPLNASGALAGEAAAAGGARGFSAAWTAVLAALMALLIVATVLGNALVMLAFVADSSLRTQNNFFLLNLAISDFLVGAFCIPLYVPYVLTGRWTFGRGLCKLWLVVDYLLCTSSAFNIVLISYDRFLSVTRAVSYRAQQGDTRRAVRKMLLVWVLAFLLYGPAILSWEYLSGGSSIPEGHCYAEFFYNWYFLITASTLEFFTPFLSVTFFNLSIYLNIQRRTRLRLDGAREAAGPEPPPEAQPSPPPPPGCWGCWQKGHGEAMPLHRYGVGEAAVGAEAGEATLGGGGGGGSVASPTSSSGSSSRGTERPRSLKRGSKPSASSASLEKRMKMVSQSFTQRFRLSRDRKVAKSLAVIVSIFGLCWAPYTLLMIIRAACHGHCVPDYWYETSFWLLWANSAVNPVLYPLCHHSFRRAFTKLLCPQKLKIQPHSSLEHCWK
# T1 sequence (Q9QYN8 whole entry): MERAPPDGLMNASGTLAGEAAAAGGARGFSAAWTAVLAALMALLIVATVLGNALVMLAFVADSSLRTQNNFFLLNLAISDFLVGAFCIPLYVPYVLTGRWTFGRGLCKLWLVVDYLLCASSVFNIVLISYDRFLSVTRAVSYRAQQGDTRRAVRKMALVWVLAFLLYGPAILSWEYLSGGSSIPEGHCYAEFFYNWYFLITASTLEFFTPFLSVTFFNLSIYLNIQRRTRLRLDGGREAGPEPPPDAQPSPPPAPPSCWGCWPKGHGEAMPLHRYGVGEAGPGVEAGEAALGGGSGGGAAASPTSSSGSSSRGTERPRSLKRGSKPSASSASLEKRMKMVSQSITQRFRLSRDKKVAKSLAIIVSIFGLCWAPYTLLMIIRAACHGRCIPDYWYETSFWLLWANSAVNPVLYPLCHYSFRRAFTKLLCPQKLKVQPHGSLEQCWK
Compound,"Ki [1, 2]",Ki (human H3 receptor; [3]),other results
COCc1cc(=O)n(C)cc1-c1ccc2c(c1)COC1(CCN(C3CCC3)CC1)O2 [Example 790],–,–,"Ki [1, 4]: < 200 nM; Ki (human H3 receptor; [5]): < 200 nM"
O=C(c1ccc(-c2ccc3c(c2)CCC2(CCN(C4CCC4)CC2)O3)cn1)N1CC[C@H](O)C1 [Example 213],–,–,"Ki [1, 6]: < 200 nM; Ki (human H3 receptor; [7]): < 200 nM"
CS(=O)(=O)N1CCC(Oc2ccc3c(c2)CCC2(CCN(C4CCC4)CC2)O3)CC1 [Example 408],–,–,"Ki [1, 8]: < 200 nM; Ki (human H3 receptor; [9]): < 200 nM"
c1ncc(Cc2ccc3c(c2)COC2(CCN(C4CCC4)CC2)O3)s1 [Example 690],–,–,"Ki [1, 4]: < 200 nM; Ki (human H3 receptor; [5]): < 200 nM"
CC(C)CN1CC(c2ccc3c(c2)COC2(CCN(C4CCC4)CC2)O3)CCC1=O (centres unmarked) [Example 564],–,–,Ki ([1]; read-out: Rat H3 kI): < 200 nM; Ki (human H3 receptor; read-out: Human H3 Ki): < 200 nM
COC1CCN(c2ccc3c(c2)CCC2(CCN(C4CCC4)CC2)O3)CC1 [Example 380],–,–,"Ki [1, 8]: < 200 nM; Ki (human H3 receptor; [9]): < 200 nM"
c1cc2c(cc1OC1CCSCC1)CCC1(CCN(C3CCC3)CC1)O2 [Example 457],–,–,Ki ([1]; read-out: Rat H3 kI): < 200 nM; Ki (human H3 receptor; read-out: Human H3 Ki): < 200 nM
c1cc2c(cc1OCC1CCCO1)CCC1(CCN(C3CCC3)C1)O2 (centres unmarked) [Example 445],–,–,Ki ([1]; read-out: Rat H3 kI): 200 to 1000 nM; Ki (human H3 receptor; read-out: Human H3 Ki): 200 to 1000 nM
FC(F)(F)Oc1ccc(-c2ccc3c(c2)CCC2(CCN(C4CCC4)CC2)O3)cc1 [Example 105],200 to 1000 nM,< 200 nM,–
OCc1ccc(-c2ccc3c(c2)CCC2(CCN(C4CCC4)CC2)O3)cc1 [Example 117],< 200 nM,< 200 nM,–
CNC(=O)c1ccc(-c2ccc3c(c2)COC2(CCN(C4CCC4)CC2)O3)cc1C#N [Example 179],–,–,"Ki [1, 6]: < 200 nM; Ki (human H3 receptor; [7]): < 200 nM"
O=S1(=O)CCC(COc2ccc3c(c2)CCC2(CCN(C4CCC4)CC2)O3)CC1 [Example 500],–,–,Ki ([1]; read-out: Rat H3 kI): < 200 nM; Ki (human H3 receptor; read-out: Human H3 Ki): < 200 nM
O=S(=O)(c1ccc(-c2ccc3c(c2)COC2(CCN(C4CCC4)CC2)O3)c(F)c1)N1CCOCC1 [Example 65],< 200 nM,< 200 nM,–
CN(C)c1ncc(-c2ccc3c(c2)CCC2(CCN(C4CCC4)CC2)O3)cn1 [Example 108],< 200 nM,< 200 nM,–
c1csc(Cc2ccc3c(c2)COC2(CCN(C4CCC4)CC2)O3)n1 [Example 696],–,–,"Ki [1, 4]: < 200 nM; Ki (human H3 receptor; [5]): < 200 nM"
Cc1cc(-c2ccc3c(c2)CCC2(CCN(C4CCC4)CC2)O3)ccc1C(=O)O [Example 327],–,–,"Ki [1, 6]: 200 to 1000 nM; Ki (human H3 receptor; [7]): < 200 nM"
c1cc2c(cc1OC1CCSC1)CCC1(CCN(C3CCC3)CC1)O2 (centres unmarked) [Example 484],–,–,Ki ([1]; read-out: Rat H3 kI): < 200 nM; Ki (human H3 receptor; read-out: Human H3 Ki): < 200 nM

Compound,"Ki [1, 2]",Ki (human H3 receptor; [3]),other results
COc1ncc(-c2ccc3c(c2)CCC2(CCN(C4CCC4)CC2)O3)cn1 [Example 104],< 200 nM,< 200 nM,–
O=C(c1ccncc1)N1CCN(c2ccc3c(c2)COC2(CCN(C4CCC4)CC2)O3)C(=O)C1 [Example 741],–,–,"Ki [1, 4]: < 200 nM; Ki (human H3 receptor; [5]): < 200 nM"
CCOc1ccc(-c2ccc3c(c2)CCC2(CCN(C4CCC4)CC2)O3)cn1 [Example 100],< 200 nM,< 200 nM,–
CCNC(=O)C1CCC(c2ccc3c(c2)COC2(CCN(C4CCC4)CC2)O3)CC1 (centres unmarked) [Example 524],–,–,Ki ([1]; read-out: Rat H3 kI): < 200 nM; Ki (human H3 receptor; read-out: Human H3 Ki): < 200 nM
CS(=O)(=O)c1ccc(-c2ccc3c(c2)CCC2(CCN(C4CCC4)CC2)O3)cc1 [Example 101],< 200 nM,< 200 nM,–
O=C(NC1CC1)c1ccc(-c2ccc3c(c2)CCC2(CCN(C4CCC4)CC2)O3)cc1 [Example 109],< 200 nM,< 200 nM,–
COCCN(C)C(=O)c1ccc(-c2ccc3c(c2)COC2(CCN(C4CCC4)CC2)O3)cc1F [Example 300],–,–,"Ki [1, 6]: < 200 nM; Ki (human H3 receptor; [7]): < 200 nM"
CCNC(=O)C1CC=C(c2ccc3c(c2)COC2(CCN(C4CCC4)CC2)O3)CC1 (centres unmarked) [Example 523],–,–,Ki ([1]; read-out: Rat H3 kI): < 200 nM; Ki (human H3 receptor; read-out: Human H3 Ki): < 200 nM
Cn1cc(-c2ccc3c(c2)CCC2(CCN(C4CCC4)CC2)O3)cn1 [Example 111],< 200 nM,< 200 nM,–
CC(C)N1CCC2(CC1)OCc1cc(-c3ccc4c(c3)CCO4)ccc1O2 [Example 64],–,< 200 nM,–
COC1(c2ccc3c(c2)COC2(CCN(C4CCC4)CC2)O3)CC(C(=O)N2CCCC2)C1 (centres unmarked) [Example 540],–,–,Ki ([1]; read-out: Rat H3 kI): < 200 nM; Ki (human H3 receptor; read-out: Human H3 Ki): < 200 nM
Cc1c(-c2ccc(=O)n(C)c2)ccc2c1COC1(CCN(C3CCC3)CC1)O2 [Example 557],–,–,Ki ([1]; read-out: Rat H3 kI): < 200 nM; Ki (human H3 receptor; read-out: Human H3 Ki): < 200 nM
N#Cc1ccc(-c2ccc3c(c2)CCC2(CCN(C4CCC4)CC2)O3)cc1 [Example 110],< 200 nM,< 200 nM,–
CC(C)N1CCC2(CC1)OCc1cc(-c3cccc(N)c3)ccc1O2 [Example 63],–,< 200 nM,–
COCCN(C)C(=O)c1ccc(-c2ccc3c(c2)CCC2(CCN(C4CCC4)CC2)O3)cc1F [Example 294],–,–,"Ki [1, 6]: < 200 nM; Ki (human H3 receptor; [7]): < 200 nM"
O=S(=O)(c1ccc(-c2ccc3c(c2)CCC2(CCN(C4CCC4)CC2)O3)cc1)N1CCCC1 [Example 103],< 200 nM,< 200 nM,–

# Continued, in another order:
"Ki [1, 2]",Ki (human H3 receptor; [3]),Compound,other results
< 200 nM,< 200 nM,NC(=O)c1ccc(-c2ccc3c(c2)COC2(CCN(C4CCC4)CC2)O3)cc1 [Example 18],–
< 200 nM,< 200 nM,c1cc(-c2ccc3c(c2)COC2(CCN(C4CCC4)CC2)O3)ccn1 [Example 10],–
< 200 nM,< 200 nM,O=S(=O)(c1ccc(-c2ccc3c(c2)COC2(CCN(C4CCC4)CC2)O3)cc1)N1CCOCC1 [Example 17],–
< 200 nM,< 200 nM,N#Cc1ccccc1-c1ccc2c(c1)COC1(CCN(C3CCC3)CC1)O2 [Example 73],–
< 200 nM,< 200 nM,c1ncc(-c2ccc3c(c2)CCC2(CCN(C4CCC4)CC2)O3)cn1 [Example 107],–
< 200 nM,< 200 nM,COc1ncc(-c2ccc3c(c2)COC2(CCN(C4CCC4)CC2)O3)cn1 [Example 23],–
< 200 nM,< 200 nM,O=C(NC1CC1)c1cccc(-c2ccc3c(c2)COC2(CCN(C4CCC4)CC2)O3)c1 [Example 55],–
< 200 nM,< 200 nM,N#Cc1ccc(Oc2ccc3c(c2)COC2(CCN(C4CCC4)CC2)O3)cc1 [Example 132],–
< 200 nM,< 200 nM,Nc1cccc(-c2ccc3c(c2)COC2(CCN(C4CCC4)CC2)O3)c1 [Example 51],–
< 200 nM,< 200 nM,c1csc(-c2ccc3c(c2)COC2(CCN(C4CCC4)CC2)O3)c1 [Example 12],–
< 200 nM,200 to 1000 nM,N#Cc1ccc(-c2ccc3c(c2)OC2(CCN(C4CCC4)CC2)O3)cc1 [Example 88],–
< 200 nM,< 200 nM,NC(=O)Nc1cccc(-c2ccc3c(c2)COC2(CCN(C4CCC4)CC2)O3)c1 [Example 52],–
< 200 nM,< 200 nM,N#Cc1ncc(-c2ccc3c(c2)COC2(CCN(C4CCC4)CC2)O3)s1 [Example 75],–
< 200 nM,< 200 nM,O=S(=O)(NC1CC1)c1ccc(-c2ccc3c(c2)COC2(CCN(C4CCC4)CC2)O3)cc1 [Example 25],–
< 200 nM,< 200 nM,Cc1nc(C)c(-c2ccc3c(c2)COC2(CCN(C4CCC4)CC2)O3)s1 [Example 70],–
< 200 nM,< 200 nM,c1cc2c(cc1-c1cn[nH]c1)CCC1(CCN(C3CCC3)CC1)O2 [Example 114],–
< 200 nM,< 200 nM,CCS(=O)(=O)c1ccc(-c2ccc3c(c2)COC2(CCN(C4CCC4)CC2)O3)cc1 [Example 20],–
–,< 200 nM,O=C(Nc1cccc(-c2ccc3c(c2)COC2(CCN(C4CCCC4)CC2)O3)c1)c1ccccc1 [Example 62],–
< 200 nM,< 200 nM,O=C(c1ccc(-c2ccc3c(c2)COC2(CCN(C4CCC4)CC2)O3)cc1)N1CCOCC1 [Example 9],–
< 200 nM,< 200 nM,O=S(=O)(c1ccc(-c2ccc3c(c2)COC2(CCN(C4CCC4)CC2)O3)cc1)N1CCCC1 [Example 16],–
< 200 nM,< 200 nM,O=S(=O)(c1ccc(-c2ccc3c(c2)COC2(CCN(C4CCC4)CC2)O3)cc1)N1CCC1 [Example 24],–
–,< 200 nM,Nc1cccc(-c2ccc3c(c2)COC2(CCN(C4CCCC4)CC2)O3)c1 [Example 61],–
–,200 to 1000 nM,c1ccc2oc(-c3ccc4c(c3)COC3(CCN(C5CCC5)CC3)O4)cc2c1 [Example 6],–
